The term IC50 denotes the concentration at which inhibition is half-maximal.

These results are taken from publication PMC11679793, “Structure-Activity Relationship Study of Majusculamide D: Overcoming Metabolic Instability and Severe Toxicity with a Fluoro Analogue” (Marine Drugs, 2024).

The test system of one data set is PANC-1 cells. Nature of the data set: MTT cell activity assay (inhibitory activity against PANC-1 cells). The class given is cell-based. Particulars: Homo sapiens, PANC-1, 72 h, read-out: IC50 (nM), inhibitory activity against PANC-1 cells (Table 1), PANC-1 cells, 72 h incubation, mean ± SD, n = 3. As to the method:
A total of 3000 PANC-1 cells were resuspended in 200 μL of culture medium and seeded into 96-well plates. After 24 h, the cells were treated with the compound and incubated for an additional 72 h. Following the incubation, 20 μL of 5 mg/mL MTT solution (Solarbio, China) was added to each well in the dark, and the cells were incubated for another 4 h. After incubation, the culture medium was discarded, and the wells were washed with PBS to remove any residual medium. Then, 200 μL of DMSO was added to each well to fully dissolve the formazan crystals, and the solution was mixed thoroughly. The absorbance was measured at 492 nm/570 nm, and the data were analyzed using GraphPad Prism.
In general terms: Tetrazolium dyes change colour on reduction, which living cells bring about.

The subject of another data set is PANC-1 xenograft tumor. Particulars: for tumor inhibition rate (%): calculated from tumor weight, 1c, gemcitabine 20 mg/kg i.v. As to the method: Furthermore, a xenografted murine subcutaneous tumor model was employed to evaluate the effects of majusculamide D and the optimized analogues 1c and 1n (Figure 1B). PANC1-bearing BALB/c nude mice were separated randomly, with a total of six mice in each group. Gemcitabine was chosen as the positive drug; the mice were then administered intravenous doses of 1c (5 mg/kg), 1n (5 mg/kg), 1a (5 mg/kg), and gemcitabine (20 mg/kg) every other day for 24 days.
A total of 4 × 10^6 PANC-1 cells suspended in 100 μL PBS were subcutaneously injected into the right shoulder region of BALB/c nude mice. When the tumor volume reached approximately 200 mm^3, the mice were euthanized, and the tumor tissues were harvested and designated as F1 generation. Tumor tissues were then cut into small cubes measuring approximately 3 × 3 × 3 mm, which were implanted into new BALB/c mice to propagate the tumors. This procedure was repeated to obtain the F2 generation of tumors. Finally, mice bearing F3 generation transplant tumors were used for drug treatment experiments. When the tumor volume reached approximately 80–100 mm^3, the mice were randomly divided into five groups (n = 6): control group, 5 mg/kg compound 1a group, 5 mg/kg compound 1c group, 5 mg/kg compound 1n group, and 20 mg/kg gemcitabine group. The compounds 1a, 1c, and 1n were dissolved in DMSO and then diluted with 0.9% physiological saline to achieve a final concentration of 0.5 mg/mL as the dosing concentration. Gemcitabine was dissolved directly in 0.9% saline to achieve a final concentration of 2 mg/mL as the dosing concentration. The compounds were administered intravenously every two days, alternating between the left and right tail veins to minimize vein damage. Injections were performed using ultra-fine syringes (30G needles) to reduce stress and ensure consistent delivery. The body weight and tumor volume of the mice were measured every four days. On day 24, the mice were euthanized, and the tumor weights were recorded. Tumor volume (V) was calculated using the formula: V = (ab^2)/2, with “a” representing the long diameter of the tumor and “b” representing the short diameter of the tumor. […] Tumor weight was used to calculate the tumor inhibition rate (Figure 1G).

A short description of data set [1]: Stability in mouse plasma assay. The class given is in vitro ADME. The conditions noted are these: 1 μM, 37 °C; for stability in mouse plasma compared to 1a (in words): 0-24 h. As to the method:
Thaw plasma at room temperature and vortex for 3–5 s. Centrifuge at 3000 rpm at 10 °C for 10 min, and carefully transfer the supernatant to a new Eppendorf tube. Preincubate the plasma at 37 °C for 10 min. Prepare a series of test substances by adding 3 μL of the compound (100 μM) to 297 μL of plasma to achieve a final concentration of 1 μM, ensuring that the DMSO concentration in plasma is 1%. Propantheline bromide is used as a positive control. Incubate the mixture at 37 °C, and at specified time points (0, 1, 2, 4, and 24 h), take 50 μL of the plasma sample. To terminate the reaction, add 250 μL of acetonitrile (containing an internal standard), vortex thoroughly, and centrifuge at 16,000 rcf (4 °C) for 10 min. Collect 130 μL of the supernatant and dilute with 70 μL of pure water for LC-MS/MS analysis. The concentration of the test substances in plasma samples was determined using LC-MS/MS. The stability of the test substance in plasma was evaluated by measuring the remaining percentage of the compound in the plasma over time.

A short description of data set [2]: Serum biochemical analysis and H&E histology of liver and kidney. The class given is in vivo, mice. The conditions noted are these: 5 mg/kg every other day, 14 days. As to the method:
In the biochemical and histological assays, 1n (5 mg/kg) and 1a (5 mg/kg) were administered to mice every other day, with the control group receiving an equivalent dose of saline. Following 14 days, mouse serum was collected for biochemical analysis, and organs were fixed for histological examination. […] In comparison, the liver tissues of the 1n-treated and control groups were normal.
Mice were euthanized, and liver and kidney tissues were collected and fixed in 10% neutral-buffered formalin for 48 h. The fixed tissues were processed for paraffin embedding, including dehydration in a graded ethanol series, clearing with xylene, and infiltration with molten paraffin wax. Paraffin blocks were sectioned into 4 μm slices using a rotary microtome, and the sections were mounted onto glass slides. The slides were dried at 60 °C for 4 h to ensure proper tissue adhesion. Following deparaffinization and rehydration, staining was performed according to the manufacturer’s instructions for the H&E staining kit (Solarbio, China). The sections were immersed in a hematoxylin solution for 3 min to stain the nuclei and then rinsed under running tap water for 1 minute to remove excess stain. Differentiation was achieved by briefly immersing the slides in a 1% hydrochloric acid-ethanol solution, followed by neutralization in 0.6% ammonia water until the nuclei appeared blue. Eosin staining was applied for 30 s to stain cytoplasmic and extracellular components, imparting a pink coloration. The slides were rinsed under running tap water for 30 s to remove excess eosin. Finally, the sections were dehydrated through a graded ethanol series, cleared with xylene, and coverslipped with a neutral resin mounting medium to preserve the stained tissues for microscopic examination.

As for `CCCCC(C)CC(C)C(=O)N(C)C(Cc1ccc(OC)cc1)C(=O)NC(C(=O)N(C)C(C(=O)N1CC(O)CC1C(=O)N1C(=O)C=CC1C)C(C)C)C(C)OC(F)(F)F` (stereo not drawn) [Compound 1c], the IC50 with PANC-1 cells was determined as 2.07 ± 0.67 nM. Also, the “tumor inhibition rate (%)” value in the data set with PANC-1 xenograft tumor (day 24, 1a, 1n 5 mg/kg) is 40.4%. In addition, in data set [1], the “stability in mouse plasma compared to 1a (in words)” value is “significantly superior stability compared to 1a”.
As for `CC(C)[N+](C)(CCOC(=O)C1c2ccccc2Oc2ccccc21)C(C)C` [bromopropyl, Propantheline bromide, reference compound], the “remaining percentage in mouse plasma after 2 h” value in data set [1] (2 h incubation) is reported as 0.90%.
For `CCCCCC[C@@H](C)C(=O)N(C)[C@@H](Cc1ccc(F)cc1)C(=O)N[C@H](C(=O)N(C)[C@H](C(=O)N1C[C@@H](O)C[C@H]1C(=O)N1C(=O)C=C[C@@H]1C)C(C)C)[C@@H](C)OC(F)(F)F` [Compound 1n], in data set [2], the “kidney tissue H&E histology” value is listed as “no significant pathological differences” and the “liver tissue H&E histology” value is listed as “normal”. Moreover, the “serum ALT and AST levels compared to the control group” value in data set [2] (n = 3) is reported as “no significant differences”. Further, the concentration for half-maximal inhibition (IC50) with PANC-1 cells stood at 3.83 nM. In the data set on PANC-1 xenograft tumor (5 mg/kg i.v. every other day, 24 days), the “impact on mouse body weight gain” value is given as “lesser impact on weight gain compared to 1a”. Besides, the “mice dead in treated group” value in the data set with PANC-1 xenograft tumor (5 mg/kg i.v., xenografted mouse model, six mice per group) is “no mouse dead”. In addition, in the data set with PANC-1 xenograft tumor (day 24, 1a, 1n 5 mg/kg), the “tumor inhibition rate (%)” value is 51.5%. In addition, in the data set on PANC-1 xenograft tumor (day 24, i.v. every other day, 1a, 1n 5 mg/kg, gemcitabine 20 mg/kg, mean ± SD), the tumor weight stood at 0.542 ± 0.156 g. The tumor volume in the data set with PANC-1 xenograft tumor (i.v. every other day for 24 days, 1a, 1n 5 mg/kg, gemcitabine 20 mg/kg, mean ± SD, n = 6) came out at 553.3 ± 166.8 mm^3. Also, the “stability in mouse plasma compared to 1a (in words)” value in data set [1] is given as “significantly superior stability compared to 1a”. In data set [1] (24 h incubation), the “remaining percentage in mouse plasma after 24 h” value was over 50%.
